In the Deep4Chem optical property database one finds absorption maximum data, which are given here for 42 compounds.

The nature of the data set: solvent given as SMILES.

Several values for one entry are separate records, joined by “and”; a condition that tells them apart may be missing. Equal entries are not always repeated.

Consider `Cc1ccc(-c2ccc(/C=C/c3ccc(Br)n3C)cn2)nc1`, for which the absorption maximum (in CC#N) is recorded as 373 nm.

As to `CC(C)[Si]1(C(C)C)c2cc(C#N)ccc2-c2ccc(N(c3ccccc3)c3ccccc3)cc21`, the absorption maximum runs as follows: (in C1CCCCC1) 391 nm; (in CC#N) 381 nm; (in CCO) 385 nm; (in CCOCC) 383 nm; (in CS(C)=O) 387 nm; (in ClCCl) 388 nm. Under “in c1ccccc1”, this compound gave an absorption maximum of 389 nm.

In the case of `CCCCCCCCCc1csc2cc(-c3cc(-c4cc5scc(CCCCCCCCC)c5s4)c4ccc5c(-c6cc7scc(CCCCCCCCC)c7s6)cc(-c6cc7scc(CCCCCCCCC)c7s6)c6ccc3c4c65)sc12`, the absorption maximum (in ClC(Cl)Cl) was 429 nm.

On to `CCCCCCc1cc2c3c(c1)c(=C1c4ccccc4Sc4ccccc41)c1cc(CCCCCC)cc4c1N3c1c(cc(CCCCCC)cc1c4=C1c3ccccc3Sc3ccccc31)c2=C1c2ccccc2Sc2ccccc21`, for which the absorption maximum (in ClCCl) is given as 430 nm.

Take `COc1ccc(-c2nc3c([nH]2)=C2C=C(Cl)S[C@@]2(C)[C@]2(C)SC(Cl)=CC=32)cc1`: the absorption maximum (in CC#N) is on record as 295 nm.

`COc1ccc2c3c(c4ccc(OC)cc4c2c1)C(C)(C)c1cc(-c2ccccc2)ccc1-3` registered an absorption maximum (in C1CCCCC1) of 389 nm.

Compound `COC(=O)c1[nH]c(-c2ccccc2)c2nnc3ccsc3c12` had an absorption maximum (in ClCCl) of 401 nm.

Where the note is “in ClCCl”, `Cc1nc(-c2cc(C(F)(F)F)ccc2O)n2c1CCCC2` returned an absorption maximum of 316 nm.

As for `CC(C)c1cc(C(C)C)c(B2c3cc(N4c5ccccc5C(C)(C)c5ccccc54)ccc3N(c3ccccc3)c3ccc(N4c5ccccc5C(C)(C)c5ccccc54)cc32)c(C(C)C)c1`, where the note is “in C1CCCCC1”, the absorption maximum is recorded as 374.83 nm.

In turn, `CC(C)(C)c1ccc2c(c1)c1ncncc1c1c3ccccc3sc21` returned an absorption maximum (in ClCCl) of 377 nm.

For the setting “in CS(C)=O”, `COc1ccc(C2=[N+]3C(=Nc4c(C)cc(-c5ccc(OC)cc5)n4[B-]3(F)F)C(C)=C2)cc1` gave an absorption maximum of 656 nm.

Regarding `N#Cc1ccc(N(c2ccccc2)c2ccc3ccc4c(N(c5ccccc5)c5ccc(C#N)cc5)ccc5ccc2c3c54)cc1`, the absorption maximum (in ClCCl) is recorded as 407 nm.

On to `CCCCCCCCCCOc1cc(OCCCCCCCCCC)cc(C2=C3C(C)=CC(/C=C/c4ccc(OC)cc4)=[N+]3[B-](F)(F)n3c(/C=C/c4ccc(OC)cc4)cc(C)c32)c1`, for which the absorption maximum (in ClC(Cl)Cl) amounted to 645 nm.

For the compound `O=S1(=O)c2ccccc2Oc2cc(N3c4ccccc4C4(c5ccccc53)c3ccccc3N(c3ccc5c(c3)Oc3ccccc3S5(=O)=O)c3ccccc34)ccc21`, the absorption maximum (in Cc1ccccc1) is recorded as 359.89 nm.

For `Fc1c(-n2c3ccccc3c3ccccc32)c(F)c(-n2c3ccccc3c3ccccc32)c(-c2nnc(-c3ccccc3)o2)c1-n1c2ccccc2c2ccccc21`, the absorption maximum (in Cc1ccccc1) is listed as 345 nm.

`Cc1ccc2[nH]c(-c3ccc(-c4ccc(-c5ccc(-c6nc7cc(C)ccc7[nH]6)cc5)c(C)c4)cc3)nc2c1`: the absorption maximum (in CN(C)C=O) is given as 333 nm.

Compound `FC(F)(F)c1ccc(-c2c3cccc4c5cccc6c(-c7ccc(C(F)(F)F)cc7)c7cccc8c9cccc2c9c(c34)c(c65)c78)cc1` displayed an absorption maximum (in Cc1ccccc1) of 683 nm.

Regarding `Clc1ccc(-c2nc3ccccc3n2-c2ccccc2)cc1`, for the setting “in CC#N”, the absorption maximum was 295 nm.

For the compound `F[B-]1(F)n2c(c3cccc4cccc2c43)=Nc2ccc3ccccc3[n+]21`, the absorption maximum by setting is: (in C1CCOC1) 486 nm; (in CC#N) 481 nm; (in CCCCCC) 490 nm; (in Cc1ccccc1) 490 nm; (in ClCCl) 455 nm.

The compound `Cc1cc(=O)oc2cc3cc(-c4cn(Cc5ccccc5)nn4)ccc3cc12` gave an absorption maximum (in CCO) of 339 nm.

`Cc1ccc2c(c1)c(=O)c1ccccc1n2CCCCCC(=O)O` showed an absorption maximum (in O) of 419 nm.

On to `c1cc2ccc1-c1ccc(cc1)-c1ccc(s1)-c1ccc(cc1)-c1ccc(cc1)-c1ccc(s1)-c1ccc(cc1)-c1ccc(cc1)-c1ccc-2s1`, for which the absorption maximum (in C1CCOC1) came to 346 nm.

For `C#CCNC1=C2C=CC=[N+]2[B-](F)(F)n2cccc21`, the absorption maximum is 422.5 nm and 426 nm (in C1CCCCC1); 406 nm (in CC(C)=O); 406 nm (in CCCCO); 408 nm (in CCCO); 406.5 nm and 406 nm (in CCO); 408.5 nm (in CCOC(C)=O). The absorption maximum came to 404 nm (in CN(C)C=O); 405 nm (in CO); 404 nm (in CS(C)=O); 421 nm (in Cc1ccccc1); 418 nm (in ClC(Cl)Cl); 404 nm (in OCC(F)(F)F). Under “in c1ccccc1”, this compound returned an absorption maximum of 422 nm.

`CC(C)(C)c1ccc(C2=C(c3ccc(N4c5ccccc5C(C)(C)c5ccccc54)cc3)S(=O)(=O)c3c2sc(-c2ccc(N4c5ccccc5C(C)(C)c5ccccc54)cc2)c3-c2ccc(C(C)(C)C)cc2)cc1` returned an absorption maximum (in C1CCOC1) of 403 nm.

Under “in ClCCl”, `FC(F)(F)c1ccc(C2=Cc3ccccc3[Si]2(c2ccccc2)c2ccccc2)cc1` displayed an absorption maximum of 336 nm.

Take `[C-]#[N+]c1ccc(-c2ccc(N)cc2)cc1`: the absorption maximum is 302 nm (in C1CCCCC1); 319 nm (in C1CCOC1); 315 nm (in C1COCCO1); 310 nm (in CC#N); 329 nm (in CC(C)=O); 301 nm (in CCCCCC). Moreover, the absorption maximum runs as follows: (in CCOC(C)=O) 315 nm; (in CN(C)C=O) 314 nm; (in CO) 308 nm; (in CS(C)=O) 318 nm; (in Cc1ccccc1) 310 nm; (in ClC(Cl)Cl) 305 nm. The absorption maximum (in ClCCl) is given as 307 nm, the absorption maximum (in O) is reported as 298 nm and the absorption maximum (in c1ccncc1) is listed as 325 nm.

Consider `CC1=CC(/C=C/c2ccc(OCCCN=[N+]=[N-])cc2)=[N+]2C1=C(c1ccc(N3CCCCC3)cc1)c1c(C)cc(C)n1[B-]2(F)F`, for which the absorption maximum (in CO) is recorded as 570 nm.

Consider `O=C(O)C1=CC(=C/C=[N+]2/c3cc(O)c(C[C@@H]4O[C@H](CO)[C@@H](O)C(O)[C@H]4O)cc3C[C@H]2C(=O)O)C=C(C(=O)O)N1` (stereo partly drawn), for which the absorption maximum was found to be 467 nm (in CO), 468 nm (in O), 476 nm (in OCCO) and 468 nm (in [2H]O[2H]).

In the case of `COc1ccc(-c2cc3c4c(c2)CCc2cc(-c5ccc(OC)cc5)cc(c2-4)CC3)cc1`, the absorption maximum (in ClC(Cl)Cl) amounted to 332.1 nm.

Under “in ClCCl”, `[O-][n+]1c(/C=C/c2ccccc2)nc(N2CCOCC2)c2c1CCCC2` registered an absorption maximum of 400 nm.

As for `O=Cc1c(O)c(-c2nc3ccccc3s2)cc2ccccc12`, the absorption maximum was determined as 352 nm (in C1CCOC1); 349 nm (in CC#N); 352 nm (in CC(C)=O); 349 nm (in CCO); 352 nm (in CCOC(C)=O); 346 nm (in CN(C)C=O). Moreover, the absorption maximum (in CO) amounted to 349 nm, the absorption maximum (in Cc1ccccc1) is reported as 358 nm, the absorption maximum (in ClC(Cl)Cl) is 352 nm and the absorption maximum (in ClCCl) amounted to 352 nm.

Take `CN(C)CCCN1c2ccccc2Sc2ccc(Cl)cc21`: the absorption maximum reads like this: (in CC#N) 312 nm; (in CO) 311 nm; (in O) 307 nm.

Turning to `CN(C)c1cc(-c2ccc(C#Cc3ccccc3)cc2)cc2ccccc12`, the absorption maximum is on record as 302.58 nm (in CC#N), 300.29 nm (in CCO) and 304 nm (in ClCCl).

For the compound `C/C(=C\c1ccc(C)cc1)c1nc2ccccc2o1`, the absorption maximum was determined as 315 nm (in C1CCCCC1) and 315 nm (in CO).

Turning to `CC[N+]1(CC)CN2C(=N1)C(C(=O)O)=Cc1c(OC)ccc(OC)c12`, the absorption maximum (in O) worked out at 368 nm.

With `COCCOCCOCCOCCOc1ccc(OCCOCCOCCOCCOC)c(C=O)c1`, the absorption maximum by setting is: (in CC(C)(C)O) 350 nm; (in CC(C)CO) 350 nm; (in CC(C)O) 349 nm; (in CCCCO) 349 nm; (in CCCO) 349 nm; (in CCO) 349 nm. The absorption maximum was 350 nm (in CN(C)C=O); 349 nm (in CNC=O); 349 nm (in CO); 352 nm (in NC=O); 351 nm (in O).

For the setting “in ClCCl”, `CCCCN(CCCC)c1ccc(C#Cc2cc(C#Cc3ccc(C#N)cc3)c(C#Cc3ccc(C#N)cc3)cc2C#Cc2ccc(N(CCCC)CCCC)cc2)cc1` came in with an absorption maximum of 416 nm.

In turn, `c1cc2ccc3[nH]c4ccc5cccc6c(c1)c2c3c4c56` registered an absorption maximum (in ClC(Cl)Cl) of 425 nm.

For the compound `CCOC(=O)c1c2c3c(ccc(Cl)c3c3cc4ccccc4cc13)N(C)C2=O`, the absorption maximum (in CC#N) stood at 408 nm.

As for `NS(=O)(=O)c1ccc(N2N=C(c3ccc(O)cc3)CC2c2ccc([N+](=O)[O-])cc2)cc1` (stereo not drawn), the absorption maximum runs as follows: (in C1CCOC1) 353 nm; (in C1COCCO1) 353 nm; (in CC#N) 352 nm; (in CC(C)O) 352 nm; (in CCO) 352 nm; (in CCOC(C)=O) 352 nm. Moreover, the absorption maximum is, setting by setting: (in CN(C)C=O) 355 nm; (in CO) 351 nm; (in CS(C)=O) 358 nm; (in O) 354 nm.

Take `CCCCC1(CCCC)c2cc(/C=C/c3ccc(N(c4ccccc4)c4ccccc4)cc3)ccc2-c2cc3c(cc21)-c1ccc(/C=C/c2ccc(N(c4ccccc4)c4ccccc4)cc2)cc1C3(CCCC)CCCC`: under “in Cc1ccccc1”, the absorption maximum was 413 nm.

As for `N#Cc1c2nc3ccccn3c2nc2c1nc1ccccn12`, the absorption maximum is 410 nm (in C1CCCCC1); 425 nm (in C1COCCO1); 430 nm (in CC#N); 435 nm (in CN(C)C=O); 425 nm (in ClC(Cl)Cl).
